The source of these data is patent US12569440B2, “Solid formulation of a 1,2,4-oxadiazole derivative” (ABAXYS THERAPEUTICS, priority 2019, dated 2026).

A short description of series [1]: Formulation study: mixing Compound A with liquid or solid acids, resulting composition and physical stability. In kind it is physicochemical. As to conditions: Compound A alone, before mixing.
Description: In a round bottom flask, to a solution of A in anhydrous Et2O (6 mL/mmol) under argon atmosphere, the acid was added dropwise, as a pure liquid or in anhydrous Et2O (3 mL/mmol) solution. The mixture was allowed to stand for 3 h. The product was then isolated by evaporation of the solvent and was dried under vacuum.
Two different net grinding procedures were used: • Solid mixing 1: In an Eppendorf, A (200 mg, 0.5 mmol) and the acid were added. The Eppendorf was then placed in the grinding device (Retsch MM400) and allowed to stir for 90 min at 30 Hz. • Solid mixing 2: In a mortar, A (200 mg, 0.5 mmol) and acid were added and then manually grinded with a pestle.
Series [2] is described as follows: Specific surface area by BET analysis (nitrogen adsorption-desorption at 77 K). In kind it is physicochemical. As to conditions: for BET surface (specific surface area): nitrogen adsorption at 77 K, 0.05-0.20 P/P0. The method, then:
Specific surface area was measured by Nitrogen adsorption-desorption analyses at 77 K with a volumetric adsorption analyser (Micromeritics 3Flex physisorption apparatus). The Brunauer—Emmet—Teller (BET) method was applied in the 0.05-0.20 P /PO range to calculate the specific surface area.

Each structure is given as a SMILES string.

Turning to `FC(F)(F)c1ccc(-c2noc(CN3CCCC(CN4CCOCC4)C3)n2)cc1` (stereo not shown) [Compound A], the “physical form of free compound” value in series [1] is “oil”.
On to `O=C1NS(=O)(=O)c2ccccc21` [Saccharin (after grinding), 1,1-dioxo-1,2-benzothiazol-3-one], for which the “BET surface (specific surface area)” value in series [2] turned out to be 6.7 m^2/g. Further, the “change of specific surface area (BET)” value in series [2] (saccharin after grinding vs commercial, A-2SA vs saccharin alone after same grinding procedure) is given as “about −30%”.
In the case of `O=C1NS(=O)(=O)c2ccccc21` [Saccharin, 1,1-dioxo-1,2-benzothiazol-3-one], the “BET surface (specific surface area)” value in series [2] (listed as Saccharin (commercial)) stood at 9.9 m^2/g.
